Laboratory results taken from patent US7470807B2, “Substituted arylalkanoic acid derivatives and use thereof” (Asahi Kasei Pharma Corporation, priority 2003, dated 2008).

Legend:
pulmonary fibrosis = conditions: clinical tests in the United States and Japan; cited from earlier work
[1] = test system: bleomycin-induced pulmonary fibrosis; assay: Bleomycin-induced rat pulmonary fibrosis model; assay type: in vivo; conditions: for median of the fibrosing score: bleomycin intratracheal, oral 10, 30, 100 and 300 mg/kg once or twice a day for 21 days, positive control ++ to +++; for fibrosing in groups administered with known type 4 PLA2 inhibitory compounds: bleomycin model, intraperitoneally or orally administered in a similar manner
Protocol: A suppressing effect on pulmonary fibrosing in a bleomycin-induced rat pulmonary fibrosis model, which is a pathological model of pulmonary fibrosis, was studied by the following method. Groups of BN female rats (7-week old) each consisting of seven rats were used for the test. The test animals were anesthetized with ketamine and xylazine, and the tracheae were exposed. Then, a 125 μg/0.1 ml solution of bleomycin (Nippon Kayaku) dissolved in physiological saline (Ohtsuka Pharmaceutical Factory) was injected into the tracheae by using a syringe. The negative control group was administered with 0.1 ml of saline into the tracheae.
Each test compound was suspended or dissolved in purified water containing 0.5% methylcellulose, and orally administered to the test animals at doses of 10, 30, 100 and 300 mg/5 ml/kg. The administration of the test compounds was started from the day of the bleomycin administration and performed once or twice a day for 21 days. The positive control group was administered with purified water containing 0.5% methylcellulose not added with any test compound in a similar manner. On the 21st day after the administration of bleomycin, the rats were sacrificed, and lungs were fixed with neutral buffered formalin to prepare histopathological samples. Staining of the histopathological samples was performed by the Azan method.
The histopathological samples of lungs were examined, and degree of fibrosing was represented with the following scores on the basis of formation of granulation tissues and proliferation of collagen fibers as indicators, i.e., −: no abnormality, ±: extremely mild change, +: mild change, ++: moderate change, and +++: significant change.

In the case of `Cc1ccc(=O)n(-c2ccccc2)c1` [pirfenidone], the “effect against pulmonary fibrosis in clinical tests” value (pulmonary fibrosis) is listed as “effective”.
With “3-[4-cyclopentyloxy-3-(1H-indole-5-yl)phenyl]propionic acid [G-4]” the “median of the fibrosing score” value [1] was “± to +”.
In the case of “3-[4-cyclopentyloxy-3-(naphthalen-2-yl)phenyl]propionic acid [G-2]”, the “median of the fibrosing score” value [1] is reported as “± to +”.
In the case of `O=C1NC(=O)C(=Cc2ccc(C(=O)NCC3CC(SC(c4ccccc4)(c4ccccc4)c4ccccc4)CN3C(=O)c3ccccc3C(=O)c3ccc(F)cc3F)cc2)S1` (stereo not drawn) [N-{1-[2-(2,4-difluorobenzoyl)benzoyl]-4-tritylsulfanylpyrrolidin-2-ylmethyl}-4-(2,4-dioxothiazolidin-5-ylidenemethyl)benzoic acid amide], the “fibrosing in groups administered with known type 4 PLA2 inhibitory compounds” value [1] is reported as “mild”.
With `O=C(CCc1ccc(OCCS(=O)(=O)CCOC(c2ccc(Cl)cc2)c2ccc(Cl)cc2)cc1)C(F)(F)F` [4-{4-[2-(2-[bis(4-chlorophenyl)methoxy]ethylsulfonyl)ethoxy]phenyl}-1,1,1-trifluoro-2-butanone] the “fibrosing in groups administered with known type 4 PLA2 inhibitory compounds” value [1] was “mild”.
In the case of `COc1cc(C(=O)O)ccc1Cc1cn(C(c2ccccc2)c2ccccc2)c2cc(Cl)ccc12` [4-(1-benzhydryl-6-chloro-1H-indol-3-ylmethyl)-3-methoxybenzoic acid, reference compound], the “fibrosing in groups administered with known type 4 PLA2 inhibitory compounds” value [1] is reported as “mild”.
